Data from PMC11861906, “Structural basis for lipid-mediated activation of G protein-coupled receptor GPR55” (Nature Communications, 2025).

How the values were obtained:
Assay type in all cases: cell-based
[1] = target: GPR55 mutant G152W (Gα13) (Homo sapiens, UniProt Q9Y2T6, G152W); assay: BRET² G protein dissociation assay, GPR55 G152W with Gα13
From the text: (§1) To validate the functionality of the GPR55 cryo-EM construct, we conducted bioluminescence resonance energy transfer 2 (BRET²)-based G protein dissociation assays[46],[47] using an engineered heterotrimeric G13 protein. The N-terminal GFP fusion of the receptor was additionally modified with a G67A mutation to disrupt fluorescence properties. We employed human embryonic kidney (HEK) cells overexpressing wt or mutant GPR55 together with Gβ3, Gγ9-GFP, and Gα13 tagged with Renilla luciferase 8 (Rluc8).
(§2) G protein dissociation assays were performed according to the original protocols of the TRUPATH BRET² assay[47],[87] but with subtle modifications as previously described[61],[88],[89]. All reagents and cells were obtained from Thermo Fisher Scientific unless indicated otherwise. The coding sequences for the G protein biosensors[47] (Gα12-Rluc8, Gα13-Rluc8, wt Gβ3, and Gγ9-GFP), the wt GPR55, the construct used for cryo-EM (with GFP bearing a G67A mutation to disrupt fluorescence properties[48] for BRET² assays), GPR55 binding pocket mutants (G152^4.56F, G152^4.56W, N171^ECL2Q, N171^ECL2A, T176^5.33A, R253^6.62A), and the wt TBXA2R were codon-optimized for Homo sapiens, gene-synthesized, and sub-cloned into pcDNA^TM3.1(+) between NheI and HindIII restriction sites by GeneArt (Thermo Fisher Scientific). […] Freshly grown cells were washed with Dulbecco’s Balanced Salt Solution (DPBS, cat. #14200075) and detached using trypsin-ethylenediaminetetraacetic acid (trypsin-EDTA) (cat. #25300-062). Then, the cells were reconstituted to 500,000 cells per mL with fresh medium, and 1,000,000 cells were seeded into each well of a 6-well plate. After 3 h incubation at 37 °C and 5% CO2, adherent cells were transfected with 600 ng DNA (1:1:1:1 ratio of plasmid DNA for GPR55, wt Gβ3, Gγ9-GFP, and Gα12-Rluc8 or Gα13-Rluc8). Plasmid DNA was mixed with 1.5 µL Lipofectamine^TM 2000 (cat. #11668027) in Opti-MEM^TM medium (cat. #31985062) and incubated for 20 min. Then, the mixture was added to each well of the 6-well plate following 24 h incubation at 37 °C and 5% CO2. Transfected cells were washed with DPBS, detached using EDTA (Versene, cat. #15040066), and reconstituted into fresh medium at 500,000 cells mL^−1. From this suspension, 50,000 cells were seeded into each well of a white-bottom 96-well plate (Nunc^TM MicroWell^TM 96 wells, cat. #136101) following overnight incubation at 37 °C and 5% CO2. Then, the adherent cells were washed with assay medium [Hank’s balanced salt solution (HBSS, cat. #14065056) plus 20 mM HEPES pH 7.4 (cat. #15630056)] and finally reconstituted into 50 µL of the same medium. […] Methoxy e-Coelenterazine was used as luciferase substrate (Prolume Purple, NanoLight Technology, cat. #369), reconstituted at 1 mM in methanol and diluted to 37.5 µM with assay buffer (7.5 µM final assay concentration). The assay was started by the addition of 20 µL luciferase substrate to each well of the assay plate using a Multidrop^TM Combi reagent dispenser (Thermo Fisher Scientific), followed by 5 min incubation at room temperature. Then, 30 µL of agonist dilutions or DMSO control was added (final DMSO concentration 1.5%), followed by an additional 5 min incubation at room temperature. BRET² measurements were performed with a PHERAstar® FSX microplate reader (BMG LABTECH) using a BRET² filter (donor emission 370–450 nm, acceptor emission 500–530 nm) at the maximum fluorescence gain of 3600. BRET² ratios were calculated by dividing GFP emission signals from Rluc8 emission counts. Buffer-DMSO controls were subtracted from each data point to calculate ΔBRET² ratios.

[2] = target: GPR55 mutant T176A (Gα13) (Homo sapiens, UniProt Q9Y2T6, T176A); assay: BRET² G protein dissociation assay, GPR55 T176A with Gα13
Chain of GPR55 mutant T176A (Gα13) (Q9Y2T6 whole entry T176A): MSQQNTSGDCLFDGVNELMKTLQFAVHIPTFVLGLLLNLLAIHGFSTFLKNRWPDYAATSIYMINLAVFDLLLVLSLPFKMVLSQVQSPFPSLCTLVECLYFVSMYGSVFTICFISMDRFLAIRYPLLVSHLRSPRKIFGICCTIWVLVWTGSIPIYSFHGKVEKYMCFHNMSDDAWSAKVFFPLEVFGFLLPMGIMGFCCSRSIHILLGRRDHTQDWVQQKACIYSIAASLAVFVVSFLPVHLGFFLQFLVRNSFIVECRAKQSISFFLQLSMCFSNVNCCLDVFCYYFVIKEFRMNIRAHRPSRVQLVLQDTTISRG
Chain of GPR55 mutant T176A (Gα13) (Q14344 whole entry partner): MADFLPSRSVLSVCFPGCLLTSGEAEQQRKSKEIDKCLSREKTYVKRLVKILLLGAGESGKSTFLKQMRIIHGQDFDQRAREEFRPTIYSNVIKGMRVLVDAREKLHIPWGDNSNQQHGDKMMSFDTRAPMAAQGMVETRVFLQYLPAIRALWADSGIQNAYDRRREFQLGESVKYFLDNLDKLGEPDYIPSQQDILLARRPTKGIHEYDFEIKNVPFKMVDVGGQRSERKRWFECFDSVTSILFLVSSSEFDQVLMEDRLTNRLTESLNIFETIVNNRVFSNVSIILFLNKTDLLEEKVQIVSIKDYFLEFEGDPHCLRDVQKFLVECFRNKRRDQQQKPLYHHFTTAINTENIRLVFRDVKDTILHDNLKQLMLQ
Chain of GPR55 mutant T176A (Gα13) (P16520 whole entry partner): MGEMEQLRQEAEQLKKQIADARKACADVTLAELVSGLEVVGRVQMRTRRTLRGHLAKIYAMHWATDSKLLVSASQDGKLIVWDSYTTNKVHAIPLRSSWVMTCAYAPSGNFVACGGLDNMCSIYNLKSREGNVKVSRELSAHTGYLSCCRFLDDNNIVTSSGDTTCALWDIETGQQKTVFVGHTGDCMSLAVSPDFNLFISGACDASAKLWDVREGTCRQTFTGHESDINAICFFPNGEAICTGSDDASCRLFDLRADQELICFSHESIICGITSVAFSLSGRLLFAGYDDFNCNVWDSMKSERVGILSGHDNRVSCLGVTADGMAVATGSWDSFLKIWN
Chain of GPR55 mutant T176A (Gα13) (O14610 1-66 partner limits assumed): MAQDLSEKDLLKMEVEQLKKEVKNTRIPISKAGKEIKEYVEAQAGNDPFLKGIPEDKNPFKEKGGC
From the text: as §1, §2

[3] = target: GPR55 mutant G152F (Gα13) (Homo sapiens, UniProt Q9Y2T6, G152F); assay: BRET² G protein dissociation assay, GPR55 G152F with Gα13
Chain of GPR55 mutant G152F (Gα13) (Q9Y2T6 whole entry G152F): as the sequence (Q9Y2T6 whole entry T176A) above, with G152F, A176T counted along it
Chain of GPR55 mutant G152F (Gα13) (Q14344 whole entry partner): as the sequence (Q14344 whole entry partner) above
Chain of GPR55 mutant G152F (Gα13) (P16520 whole entry partner): as the sequence (P16520 whole entry partner) above
Chain of GPR55 mutant G152F (Gα13) (O14610 1-66 partner limits assumed): as the sequence (O14610 1-66 partner limits assumed) above
From the text: as §1, §2

wt GPR55 (Gα13) = wt GPR55 (Gα13) (Homo sapiens, UniProt Q9Y2T6); assay: BRET² G protein dissociation assay, wt GPR55 with Gα13; conditions: for ΔBRET² ratio (Mean): GPR55-wt-G13
Chain of wt GPR55 (Gα13) (Q9Y2T6 whole entry): as the sequence (Q9Y2T6 whole entry T176A) above, with A176T counted along it
Chain of wt GPR55 (Gα13) (Q14344 whole entry partner): as the sequence (Q14344 whole entry partner) above
Chain of wt GPR55 (Gα13) (P16520 whole entry partner): as the sequence (P16520 whole entry partner) above
Chain of wt GPR55 (Gα13) (O14610 1-66 partner limits assumed): as the sequence (O14610 1-66 partner limits assumed) above
From the text: as §1, §2

Chain of GPR55 mutant G152W (Gα13) (Q9Y2T6 whole entry G152W, the tested form may be a part): as the sequence (Q9Y2T6 whole entry T176A) above, with G152W, A176T counted along it
Chain of GPR55 mutant G152W (Gα13) (Q14344 whole entry partner, the tested form may be a part): as the sequence (Q14344 whole entry partner) above
Chain of GPR55 mutant G152W (Gα13) (P16520 whole entry partner, the tested form may be a part): as the sequence (P16520 whole entry partner) above
Chain of GPR55 mutant G152W (Gα13) (O14610 1-66 partner limits assumed): as the sequence (O14610 1-66 partner limits assumed) above

Cc1cccc(N2CCN(C(=O)c3cc(S(=O)(=O)N(C)C)ccc3N3CCCC3)CC2)c1C [ML184, 3-[[4-(2,3-dimethylphenyl)-1-piperazinyl]carbonyl]-N,N-dimethyl-4-(1-pyrrolidinyl)benzenesulfonamide]
Mean (plotted) BRET² response, GPR55-G152W-G13 ([1]; Concentration 300 pM): -0.02434
Mean (plotted) BRET² response, GPR55-G152W-G13 ([1]; Concentration 1e-9 M): -0.04124
Mean (plotted) BRET² response, GPR55-G152W-G13 ([1]; Concentration 3e-9 M): -0.05947
Mean (plotted) BRET² response, GPR55-G152W-G13 ([1]; Concentration 1e-8 M): -0.07141
Mean (plotted) BRET² response, GPR55-G152W-G13 ([1]; Concentration 3e-8 M): -0.07973
Mean (plotted) BRET² response, GPR55-G152W-G13 ([1]; Concentration 1e-7 M): -0.08343
Mean (plotted) BRET² response, GPR55-G152W-G13 ([1]; Concentration 3e-7 M): -0.08701
Mean (plotted) BRET² response, GPR55-G152W-G13 ([1]; Concentration 1e-6 M): -0.08751
Mean (plotted) BRET² response, GPR55-G152W-G13 ([1]; Concentration 3e-6 M): -0.0887
Mean (plotted) BRET² response, GPR55-G152W-G13 ([1]; Concentration 1e-5 M): -0.09176
Mean (plotted) BRET² response, GPR55-G152W-G13 ([1]; Concentration 3e-5 M): -0.09408
increase of potency compared to wt GPR55 ([1]; G152W mutant): 34 fold
Emax at 30 µM ([1]; GPR55 G152W, Gα13, 30 µM ligand, same normalization, read-out: Efficacy ± SEM (%)): 107 ± 1%
EC50 ([1]; GPR55 G152W, Gα13, calculated by extrapolating ΔBRET² ratios for concentrations <0.3 nM): 1.35 nM
Mean (plotted) BRET² response, GPR55-T176A-G13 ([2]; Concentration 300 pM): 0.001302
Mean (plotted) BRET² response, GPR55-T176A-G13 ([2]; Concentration 1e-9 M): -0.0007282
Mean (plotted) BRET² response, GPR55-T176A-G13 ([2]; Concentration 3e-9 M): -0.005903
Mean (plotted) BRET² response, GPR55-T176A-G13 ([2]; Concentration 1e-8 M): -0.01189
Mean (plotted) BRET² response, GPR55-T176A-G13 ([2]; Concentration 3e-8 M): -0.02424
Mean (plotted) BRET² response, GPR55-T176A-G13 ([2]; Concentration 1e-7 M): -0.03886
Mean (plotted) BRET² response, GPR55-T176A-G13 ([2]; Concentration 3e-7 M): -0.05218
Mean (plotted) BRET² response, GPR55-T176A-G13 ([2]; Concentration 1e-6 M): -0.06011
Mean (plotted) BRET² response, GPR55-T176A-G13 ([2]; Concentration 3e-6 M): -0.06604
Mean (plotted) BRET² response, GPR55-T176A-G13 ([2]; Concentration 1e-5 M): -0.06889
Mean (plotted) BRET² response, GPR55-T176A-G13 ([2]; Concentration 3e-5 M): -0.07107
EC50 ([2]; GPR55 T176A, Gα13): 77.6 nM
Emax at 30 µM ([2]; GPR55 T176A, Gα13, 30 µM ligand, same normalization, read-out: Efficacy ± SEM (%)): 100 ± 1%
reduction of potency compared to wt GPR55 ([2]; T176A mutant): 2 fold
Mean (plotted) BRET² response, GPR55-G152F-G13 ([3]; Concentration 300 pM): -0.004043
Mean (plotted) BRET² response, GPR55-G152F-G13 ([3]; Concentration 1e-9 M): -0.005951
Mean (plotted) BRET² response, GPR55-G152F-G13 ([3]; Concentration 3e-9 M): -0.01719
Mean (plotted) BRET² response, GPR55-G152F-G13 ([3]; Concentration 1e-8 M): -0.03259
Mean (plotted) BRET² response, GPR55-G152F-G13 ([3]; Concentration 3e-8 M): -0.04406
Mean (plotted) BRET² response, GPR55-G152F-G13 ([3]; Concentration 1e-7 M): -0.05628
Mean (plotted) BRET² response, GPR55-G152F-G13 ([3]; Concentration 3e-7 M): -0.06251
Mean (plotted) BRET² response, GPR55-G152F-G13 ([3]; Concentration 1e-6 M): -0.06831
Mean (plotted) BRET² response, GPR55-G152F-G13 ([3]; Concentration 3e-6 M): -0.07057
Mean (plotted) BRET² response, GPR55-G152F-G13 ([3]; Concentration 1e-5 M): -0.07761
Mean (plotted) BRET² response, GPR55-G152F-G13 ([3]; Concentration 3e-5 M): -0.07919
reduction of potency compared to wt GPR55 ([3]; G152F mutant): remained unchanged
EC50 ([3]; GPR55 G152F, Gα13): 21.9 nM
Emax at 30 µM ([3]; GPR55 G152F, Gα13, 30 µM ligand, same normalization, read-out: Efficacy ± SEM (%)): 108 ± 3%
ΔBRET² ratio (Mean) (wt GPR55 (Gα13); 3e-10 M): -0.004943
ΔBRET² ratio (Mean) (wt GPR55 (Gα13); 1e-9 M): -0.002883
ΔBRET² ratio (Mean) (wt GPR55 (Gα13); 3e-9 M): -0.008889
ΔBRET² ratio (Mean) (wt GPR55 (Gα13); 1e-8 M): -0.01695
ΔBRET² ratio (Mean) (wt GPR55 (Gα13); 3e-8 M): -0.02473
ΔBRET² ratio (Mean) (wt GPR55 (Gα13); 1e-7 M): -0.03149
ΔBRET² ratio (Mean) (wt GPR55 (Gα13); 3e-7 M): -0.03626
ΔBRET² ratio (Mean) (wt GPR55 (Gα13); 1e-6 M): -0.04111
ΔBRET² ratio (Mean) (wt GPR55 (Gα13); 3e-6 M): -0.04451
ΔBRET² ratio (Mean) (wt GPR55 (Gα13); 1e-5 M): -0.04913
ΔBRET² ratio (Mean) (wt GPR55 (Gα13); 3e-5 M): -0.04899
G protein activation at GPR55-transfected cells (in words) (wt GPR55 (Gα13); wt GPR55, Gα13): induced Gα13 activation in a concentration-dependent manner
Emax at 30 µM (wt GPR55 (Gα13); wt GPR55, Gα13, 30 µM ligand, 100% = wt GPR55 plus G13-biosensor at 30 µM ML184, 0% = mock plus G13-biosensor, read-out: Efficacy ± SEM (%)): 100 ± 2%
EC50 (wt GPR55 (Gα13); wt GPR55, Gα13, read-out: EC50 (Gα13 activation)): 44.7 nM
